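Interpolation was linear, between the two tested concentrations surrounding the appropriate level; five concentrations were tested over 48 hours in 96-well plates. GI50 = concentration required for 50% inhibition of growth.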 Calls of active or inactive are those of the source. Cut-off read from the data, not from the text of the source: active = GI50 up to about 1.1 µM and inactive = higher. Bounds are passed on as bounds.

Experiment in all cases: inhibition of tumour cell growth, NCI panel, 48 h
Assay [1] deals with SW-620.
In assay [2] the test system is HCT-116.
Assay [3] has as its system SR.
The subject of assay [4] is RPMI-8226.
Assay [5] relates to A498.
Assay [6] has as its system UO-31.
Assay [7] deals with OVCAR-8.
Assay [8] concerns U-251.
Assay [9] deals with SK-MEL-5.
Assay [10] relates to RXF 393.
In assay [11] the test system is MOLT-4.
Assay [12] relates to HOP-62.
In assay [13] the test system is OVCAR-3.
Assay [14] concerns IGROV-1.
Assay [15] deals with NCI-H23.
For assay [16], the system named is KM12.
Assay [17] deals with HCC 2998.
For assay [18], the system named is HL-60.

With `COc1cccc(/C=N/NC(N)=O)c1O`, the GI50 is > 100 µM (inactive) in assay [1]; > 100 µM (inactive) in assay [2]; 0.0603 µM (active) in [3]; > 100 µM (inactive) in [4]; > 100 µM (inactive) in assay [5]; > 100 µM (inactive) in assay [6]. Moreover, the GI50 in [7], in assay [8], in assay [9], in assay [10], in assay [11] and in assay [12] was > 100 µM (inactive) throughout. Also, the GI50 in [13], in assay [14], in [15], in assay [16] and in assay [17] was > 100 µM (inactive) each time.
For `COc1ccc(-c2ccccc2)c2[nH]c3c(c12)CCNC3=O`, the GI50 in assay [1], in assay [2], in assay [3], in [4], in assay [5] and in [6] was > 100 µM (inactive) in each case. Besides, the GI50 in assay [7] is > 100 µM (inactive); in assay [8] it was > 100 µM (inactive); in assay [9], > 100 µM (inactive); in [10], 45.6 µM (inactive); in assay [11] it was > 100 µM (inactive); in assay [12], > 100 µM (inactive). The GI50 in assay [13], in assay [18], in [14], in assay [15], in assay [16] and in [17] was > 100 µM (inactive) throughout.
In the case of `COc1ccc2c(c1)C(=O)Cc1ccccc1CC2`, the GI50 in assay [1], in assay [2], in assay [3], in assay [4], in assay [5] and in [6] was > 100 µM (inactive) each time. In addition, the GI50 in [7], in assay [8], in assay [9], in [10], in assay [11] and in assay [13] was > 100 µM (inactive) in each case. Moreover, the GI50 in assay [18], in assay [14], in [15], in assay [16] and in assay [17] was > 100 µM (inactive) throughout.
`C[N+](C)(C)CC(=O)N/N=C/c1oc(-c2c(O)ccc3ccccc23)c(-c2c(O)ccc3ccccc23)c1[N+](=O)[O-]`: the GI50 in [1] was 21.5 µM (inactive); in [2], 12.2 µM (inactive); in [3], 15.2 µM (inactive); in assay [4], 27 µM (inactive); in assay [5] it was 16.9 µM (inactive); in assay [6], 7.36 µM (inactive). In addition, the GI50 in [7] was 19.1 µM (inactive); in assay [8], 15 µM (inactive); in assay [9], 8.87 µM (inactive); in assay [10], 11.2 µM (inactive); in assay [11] it was 14.5 µM (inactive); in assay [13], 16.3 µM (inactive). Moreover, the GI50 in [18] was 18.5 µM (inactive); in assay [14], 11 µM (inactive); in assay [15] it was 16.4 µM (inactive); in assay [16], 11.5 µM (inactive); in assay [17], 16 µM (inactive).
Consider `CN1C2(c3ccccc3)C(C(=O)c3ccccc3)=C(C(=O)c3ccccc3)C1(c1ccccc1)c1c(-c3ccccc3)sc(-c3ccccc3)c12`, for which the GI50 in assay [1], in assay [2], in [3], in assay [4], in assay [5] and in assay [6] was > 100 µM (inactive) in each case. In addition, the GI50 in assay [7], in assay [8], in [9], in [10], in [12] and in assay [13] was > 100 µM (inactive) in each case. The GI50 in assay [18], in assay [14], in [15], in [16] and in assay [17] was > 100 µM (inactive) each time.
Consider `CC1=C(C)CC2(SC1)C(=O)c1ccccc1C2=O`, for which the GI50 was > 100 µM (inactive) in assay [1]; > 100 µM (inactive) in assay [2]; > 100 µM (inactive) in [3]; > 100 µM (inactive) in assay [4]; > 100 µM (inactive) in assay [5]; 66.1 µM (inactive) in assay [6]. In addition, the GI50 in [7], in [8], in assay [9], in assay [10], in [11] and in assay [12] was > 100 µM (inactive) throughout. Moreover, the GI50 in assay [18], in [14], in assay [16] and in assay [17] was > 100 µM (inactive) throughout.
`Cc1ccccc1NC(=O)C(=O)CC(=O)c1c(C)[n+]([O-])c2ccccc2[n+]1[O-]`: the GI50 in assay [1] was > 100 µM (inactive); in assay [2], > 100 µM (inactive); in assay [3] it was 0.0278 µM (active); in assay [4] it was > 100 µM (inactive); in assay [5], > 100 µM (inactive); in assay [6], > 100 µM (inactive). The GI50 in assay [7], in assay [8], in assay [10], in assay [12], in assay [13] and in [14] was > 100 µM (inactive) throughout. Besides, the figures for the GI50 in assay [15], in assay [16] and in assay [17] were > 100 µM (inactive), 59.8 µM (inactive) and > 100 µM (inactive), respectively.
Regarding `CCCCCCCCCCCCCCC1OC(=O)c2ccccc21` (configuration not stated), the GI50 in assay [1] is 63.4 µM (inactive); in [2], 34.6 µM (inactive); in assay [3], 42.5 µM (inactive); in [4] it was 32.2 µM (inactive); in [5] it was > 100 µM (inactive); in assay [6] it was > 100 µM (inactive). Besides, the GI50 in [7] is 55.8 µM (inactive); in assay [8] it was > 100 µM (inactive); in assay [10], 52 µM (inactive); in assay [11], 36.7 µM (inactive); in [12] it was > 100 µM (inactive); in assay [13], 79.8 µM (inactive). For the same compound, the GI50 was 15.6 µM (inactive) in assay [18], 89.5 µM (inactive) in assay [14], 43.8 µM (inactive) in [15] and 39.1 µM (inactive) in assay [16].
With `C=C1C(=O)C23[C@H](O)C1CC[C@H]2[C@]12COC3(O)[C@@H](O)[C@@H]1C(C)(C)CC[C@@H]2O`, the GI50 in [1] is 1.84 µM (inactive); in [2], 7.28 µM (inactive); in [3], 1.34 µM (inactive); in [4], 4.08 µM (inactive); in assay [5] it was 9.1 µM (inactive); in assay [6] it was 15.4 µM (inactive). Also, the GI50 in assay [7] is 13.4 µM (inactive); in assay [8], 6.04 µM (inactive); in [9], 15.1 µM (inactive); in assay [10], 2.57 µM (inactive); in assay [11] it was 3.27 µM (inactive); in assay [12] it was 20.6 µM (inactive). The GI50 is 14.8 µM (inactive) in [13]; 4.27 µM (inactive) in assay [18]; 21.4 µM (inactive) in assay [14]; 13.5 µM (inactive) in assay [15]; 16.9 µM (inactive) in [16]; 15.8 µM (inactive) in [17].
Turning to `COc1cccc(N2C(=O)C3C4C=C5c6ccccc6N(c6ccccc6)C5(C3C2=O)[C@H]2C(=O)N(c3cccc(OC)c3)C(=O)[C@@H]42)c1` (some centres not stated), the GI50 in [1], in assay [2], in assay [3], in assay [4], in [5] and in [6] was > 100 µM (inactive) throughout. The GI50 in assay [7], in [8], in [9], in assay [10], in [11] and in assay [12] was > 100 µM (inactive) each time. Also, the GI50 in [13], in [18], in [14], in assay [15] and in assay [16] was > 100 µM (inactive) throughout.
As for `CC(=O)OCCOCNC(=S)N/N=C(\C)c1cccs1`, the GI50 in [1], in assay [2], in assay [3], in [4], in assay [5] and in assay [6] was > 100 µM (inactive) in each case. The GI50 in assay [7], in [8], in [9], in [10], in assay [11] and in [12] was > 100 µM (inactive) throughout. In addition, the GI50 in assay [13], in [18], in assay [14], in [15], in assay [16] and in assay [17] was > 100 µM (inactive) each time.
With `O=[N+]([O-])c1ccc(-c2cnc3ccccn23)cc1`, the GI50 in assay [1] is > 100 µM (inactive); in assay [2] it was > 100 µM (inactive); in [3] it was 84.7 µM (inactive); in assay [4], 52.6 µM (inactive); in assay [5], > 100 µM (inactive); in [6], > 100 µM (inactive). Besides, the GI50 was > 100 µM (inactive) in assay [7]; > 100 µM (inactive) in assay [8]; > 100 µM (inactive) in [9]; 24.2 µM (inactive) in [10]; > 100 µM (inactive) in assay [11]; > 100 µM (inactive) in assay [12]. Besides, the GI50 in assay [13] is > 100 µM (inactive); in [18] it was 44.2 µM (inactive); in assay [15], > 100 µM (inactive); in assay [16] it was > 100 µM (inactive).

The record behind these values is ChEMBL document CHEMBL1201862, “PubChem BioAssay data set” (2004).
